From patent publication US20230250096A1, “SUBSTITUTED PHENYL-1H-PYRROLO[2,3-c] PYRIDINE DERIVATIVES” (Janssen Pharmaceutica NV, priority 2021, published 2023)
Like-named read-outs stand apart in the source and are kept apart here.

Assays:
Format in all cases: cell-based, human
[1] = system: KO-52 cells; experiment: Proliferation assay (spheroid confluence, 8 days), KO-52 control cell line; settings: read-out: spheroid assay_KO-52 IC50
In short: (§1)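 Absolute IC50 derived from spheroid confluence imaged on day 8, scaled between DMSO (0%) and a cytotoxic low control such as 1 μM staurosporin, fitted with variable slope, bounds fixed at 0 and 100%. Seeding 200 cells/well (300 for KO-52), ultra-low attachment plates, 0.3% DMSO, 37° C.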

[2] = system: MEIS1 mRNA expression; experiment: MEIS1 mRNA expression assay (Quantigene Singleplex) in MOLM14 cells; settings: 48 hours incubation
In short: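 Read-out: MEIS1 transcript counts, background-subtracted and divided by RPL28, expressed as fold change over DMSO-treated cells, then dose-response modelled for IC50. MOLM14 cells (3,750/well) received graded compound for 48 h before lysis and QuantiGene hybridization at 55 °C.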

[3] = system: OCI-AML3 cells; experiment: Proliferation assay (spheroid confluence, 8 days), OCI-AML3; settings: Homo sapiens, OCI-AML-3, OCI-AML3; read-out: spheroid assay_OCI-AML3 IC50
Description: The anti-proliferative effect of menin/MLL protein/protein interaction inhibitor test compounds was assessed in human leukemia cell lines. The cell line MOLM14 harbors a MLL translocation and expresses the MLL fusion protein MLL-AF9, respectively, as well as the wildtype protein from the second allele. OCI-AML3 cells that carry the NPM1c gene mutation were also tested. […] KO-52 was used as a control cell line containing two MLL (KMT2A) wildtype alleles in order to exclude compounds that display general cytotoxic effects.
MOLM14 cells were cultured in RPMI-1640 (Sigma Aldrich) supplemented with 10% heat-inactivated fetal bovine serum (HyClone), 2 mM L-glutamine (Sigma Aldrich) and 50 μg/ml gentamycin (Gibco). KO-52 and OCI-AML3 cell lines were propagated in alpha-MEM (Sigma Aldrich) supplemented with 20% heat-inactivated fetal bovine serum (HyClone), 2 mM L-glutamine (Sigma Aldrich) and 50 μg/ml gentamycin (Gibco).
In order to assess the anti-proliferative effects, 200 MOLM14 cells, 200 OCI-AML3 cells or 300 KO-52 cells were seeded in 200 μl media per well in 96-well round bottom, ultra-low attachment plates (Costar, catalogue number 7007). Cell seeding numbers were chosen based on growth curves to ensure linear growth throughout the experiment. Test compounds were added at different concentrations and the DMSO content was normalized to 0.3%. Cells were incubated for 8 days at 37° C. and 5% CO2. Spheroid like growth was measured in real-time by live-cell imaging (IncuCyteZOOM, Essenbio, 4×objective) acquiring images at day 8. Confluence (%) as a measure of spheroid size was determined using an integrated analysis tool.
In order to determine the effect of the test compounds over time, the confluence in each well as a measure of spheroid size, was calculated. Confluence of the highest dose of a reference compound was used as baseline for the LC (Low control) and the confluence of DMSO treated cells was used as 0% cytotoxicity (High Control, HC).
Absolute IC50 values were calculated as percent change in confluence as follows:
LC=Low Control: cells treated with e.g. 1 μM of the cytotoxic agent staurosporin, or e.g. cells treated with a high concentration of an alternative reference compound
HC=High Control: Mean confluence (%) (DMSO treated cells)
% Effect=100−(100*(Sample−LC)/(HC−LC))
GraphPad Prism (version 7.00) was used to calculate the IC50. Dose-response equation was used for the plot of % Effect vs Log10 compound concentration with a variable slope and fixing the maximum to 100% and the minimum to 0%.

[4] = system: MOLM14 cells; experiment: Proliferation assay (spheroid confluence, 8 days), MOLM14; settings: read-out: spheroid assay_MOLM14 IC50
In short: as §1

| Structure (SMILES) | IC50 [2] [µM] | IC50 [3] [µM] | IC50 ([4]; MOLM14) [µM] | IC50 ([2]; Homo sapiens, MOLM-14, 48 h) [µM] | IC50 ([4]; Homo sapiens, MOLM-14, MOLM14) [µM] | IC50 [1] [µM] | IC50 ([1]; Homo sapiens) [µM] |
| --- | --- | --- | --- | --- | --- | --- | --- |
| CN=S(=O)(c1cc(F)ccc1-n1cc(CC2CCN(CC3CCOCC3)C2)c2c(C)cncc21)C(C)C (single isomer, unassigned) [Compound 77b] | 0.132 | 0.128 | 0.081 | – | – | 1.9 | – |
| Cc1cncc2c1c(C[C@@H]1CCN([C@@H](CO)C3CCCOC3)C1)cn2-c1ccc(F)cc1C(=O)N(C)C(C)C (single isomer, unassigned) [Compound 198a] | – | 0.015 | – | 0.013 | 0.01 | – | – |
| Cc1cncc2c1c(C[C@@H]1CCN([C@H](CO)C3CCCOC3)C1)cn2-c1ccc(F)cc1C(=O)N(C)C(C)C (single isomer, unassigned) [Compound 198b] | – | 0.156 | – | 0.107 | – | – | > 15 |
| CNC(=O)[C@H]1CC[C@H](CN2CC(Cc3cn(-c4ccc(F)cc4C(=O)N(C)C(C)C)c4cncc(C)c34)C2)CC1 [Compound 74] | – | – | – | 0.012 | 0.004 | – | 5.2 |
| CNC(=O)c1cncc(N2CCC(N3CC(Cc4cn(-c5ccc(F)cc5C(=O)N(C)C(C)C)c5cncc(C)c45)C3)CC2)n1 [Compound 75] | – | – | – | 0.119 | 0.009 | – | 2 |
| CN=S(=O)(c1cc(F)ccc1-n1cc(CC2CCN(CC3CCOCC3)C2)c2c(C)cncc21)C(C)C (stereo not shown) [Compound 77] | – | – | – | 0.136 | 0.09 | – | 5.8 |
| Cc1cncc2c1c(CC1CN(CC3CCNC(=O)CC3)C1)cn2-c1ccc(F)cc1C(=O)N(C)C(C)C (stereo not shown) [Compound 104] | – | – | – | 0.254 | 0.275 | – | > 15 |
| CN=S(=O)(c1cc(F)ccc1-n1cc(CC2CCN(CC3CCN(C(C)=O)CC3)C2)c2c(C)cncc21)C(C)C (stereo not shown) [Compound 128] | – | – | – | 0.238 | 0.146 | – | 7.9 |
| Cc1cncc2c1c(CC1CN(CC3CCC(O)CC3)C1)cn2-c1ccc(F)cc1C(=O)N(C)C(C)C (stereo not shown) [Compound 144] | – | – | – | 0.011 | 0.011 | – | 6.5 |
| COC(=O)[C@H]1CC[C@@H](CN2CC[C@@H](Cc3cn(-c4ccc(F)cc4C(=O)N(C)C(C)C)c4cncc(C)c34)C2)CC1 [Compound 153] | – | – | – | 0.077 | 0.035 | – | 7.9 |
| Cc1cncc2c1c(C[C@@H]1CCN(C[C@H]3CC[C@@H](C(=O)N4CCC4)CC3)C1)cn2-c1ccc(F)cc1C(=O)N(C)C(C)C [Compound 178] | – | – | – | 0.014 | 0.012 | – | 2.9 |
| CNC(=O)[C@H]1CC[C@@H](CN2CC[C@@H](Cc3cn(-c4ccc(F)cc4C(=O)N(C)C(C)C)c4cncc(C)c34)C2)CC1 [Compound 185] | – | – | – | 0.044 | 0.023 | – | 11 |
| CC(=O)N1CCC(CCN2CC[C@@H](Cc3cn(-c4ccc(F)cc4C(=O)N(C)C(C)C)c4cncc(C)c34)C2)CC1 [Compound 189] | – | – | – | 0.314 | 0.255 | – | 14.4 |
| Cc1cncc2c1c(C[C@@H]1CCN(C[C@H]3CCCCN3)C1)cn2-c1ccc(F)cc1C(=O)N(C)C(C)C [Compound 199] | – | – | – | 0.338 | 0.126 | – | 11.8 |
| CC(=O)NC1CCC(N2CC[C@@H](Cc3cn(-c4ccc(F)cc4C(=O)N(C)C(C)C)c4cncc(C)c34)C2)CC1 (stereo partly shown) [Compound 200] | ~0.864 | – | 0.679 | – | – | – | > 15 |
| CC(=O)NC1CCC(N2CC[C@@H](Cc3cn(-c4ccc(F)cc4C(=O)N(C)C(C)C)c4cncc(C)c34)C2)CC1 (stereo partly shown) [Compound 201] | 0.047 | 0.035 | 0.031 | – | – | – | – |
| CNC(=O)N1CCC(CN2CCC(Cc3cn(-c4ccc(F)cc4C(=O)N(C)C(C)C)c4cncc(C)c34)CC2)CC1 [Compound 202] | – | – | – | 0.025 | 0.007 | – | 3.4 |
| CON(C)C(=O)N1CCC(CN2CCC(Cc3cn(-c4ccc(F)cc4C(=O)N(C)C(C)C)c4cncc(C)c34)CC2)CC1 [Compound 203] | – | – | – | 0.043 | 0.012 | – | 2.9 |
| Cc1cncc2c1c(CC1CCN(CC3CCN(C(=O)N4CCOCC4)CC3)CC1)cn2-c1ccc(F)cc1C(=O)N(C)C(C)C [Compound 204] | – | – | – | 0.079 | 0.016 | – | 1.6 |
| Cc1cncc2c1c(C[C@@H]1CCN(CC3CCC(O)CC3)C1)cn2-c1ccc(F)cc1C(=O)N(C)C(C)C (stereo partly shown) [Compound 205] | – | – | – | 0.019 | 0.019 | – | 2.5 |
| CC(=O)N1CC2CC(C1)C2N1CC[C@H](Cc2cn(-c3ccc(F)cc3C(=O)N(C)C(C)C)c3cncc(C)c23)C1 (stereo partly shown) [Compound 208] | – | – | – | 0.281 | 0.224 | – | > 15 |
| CC(=O)N1CC2CC(C1)C2N1CC[C@@H](Cc2cn(-c3ccc(F)cc3C(=O)N(C)C(C)C)c3cncc(C)c23)C1 (stereo partly shown) [Compound 209] | – | – | – | > 1 | 0.458 | – | 12.8 |

More lines, main results first:

| IC50 [2] [µM] | IC50 [3] [µM] | IC50 ([4]; MOLM14) [µM] | IC50 ([2]; Homo sapiens, MOLM-14, 48 h) [µM] | IC50 ([4]; Homo sapiens, MOLM-14, MOLM14) [µM] | Structure (SMILES) | IC50 [1] [µM] | IC50 ([1]; Homo sapiens) [µM] |
| --- | --- | --- | --- | --- | --- | --- | --- |
| – | – | – | 0.029 | 0.016 | Cc1cncc2c1c(C[C@@H]1CCN(CC3CCN(C(N)=O)CC3)C1)cn2-c1ccc(F)cc1C(=O)N(C)C(C)C [Compound 207] | – | 14.3 |
| 0.113 | – | – | – | 0.169 | CC(=O)NC1CCC(N2CC[C@H](Cc3cn(-c4ccc(F)cc4C(=O)N(C)C(C)C)c4cncc(C)c34)C2)CC1 (stereo partly shown) [Compound 211] | – | > 15 |
| – | – | – | 0.015 | 0.015 | Cc1cncc2c1c(CC1CN(CC3CCOCC3)C1)cn2-c1ccc(F)cc1C(=O)N1CCC2CC21 (stereo not shown) [Compound 262] | – | 2.9 |
| – | – | – | 0.025 | 0.02 | Cc1cncc2c1c(CC1CN(CC3CCOCC3)C1)cn2-c1ccc(F)cc1C(=O)N1CC2CC1CO2 (stereo not shown) [Compound 264] | – | 13.5 |
| – | – | – | 0.037 | 0.088 | Cc1cncc2c1c(CC1CN(CC3CCOCC3)C1)cn2-c1ccc(F)cc1C(=O)N1CCCC1CO (stereo not shown) [Compound 268] | – | > 15 |
| – | – | – | 0.017 | 0.012 | Cc1cncc2c1c(CC1CN(CC3CCOCC3)C1)cn2-c1ccc(F)cc1C(=O)N1CCC[C@H]1C [Compound 279] | – | 5.1 |
| – | – | – | 0.013 | 0.01 | Cc1cncc2c1c(CC1CN(CC3CCOCC3)C1)cn2-c1ccc(F)cc1C(=O)N(CCO)C(C)C [Compound 281] | – | 4.2 |
| – | – | – | 0.018 | 0.017 | CC(=O)N1CCC(CN2CC[C@@H](Cc3cn(-c4ccc(F)cc4C(=O)N4CCC5CC54)c4cncc(C)c34)C2)CC1 (stereo partly shown) [Compound 311] | – | 5.2 |
| – | – | – | 0.055 | 0.033 | CC(=O)N1CCC(CN2CC[C@@H](Cc3cn(-c4ccc(F)cc4C(=O)N4CC5CC4CO5)c4cncc(C)c34)C2)CC1 (stereo partly shown) [Compound 312] | – | > 15 |
| – | – | – | 0.037 | 0.01 | CC(=O)N1CCC(CN2CC[C@@H](Cc3cn(-c4ccc(F)cc4C(=O)N4CCC[C@H]4C)c4cncc(C)c34)C2)CC1 [Compound 315] | – | 2.4 |
| – | – | – | 0.029 | 0.012 | CC(=O)N1CCC(CN2CC[C@@H](Cc3cn(-c4ccc(F)cc4C(=O)N4[C@@H](C)CC[C@@H]4C)c4cncc(C)c34)C2)CC1 [Compound 316] | – | 8.9 |
| – | – | – | 0.24 | 0.139 | CC(=O)N1CCC(CN2CC[C@@H](Cc3cn(-c4ccc(F)cc4C(=O)N4CCC[C@@H]4C)c4cncc(C)c34)C2)CC1 [Compound 319] | – | > 15 |
| – | – | – | 0.023 | 0.019 | CC(=O)N1CCC(CN2CC[C@@H](Cc3cn(-c4ccc(F)cc4C(=O)N(CC(C)O)C(C)C)c4cncc(C)c34)C2)CC1 (stereo partly shown) [Compound 320] | – | 6.9 |
| – | 0.052 | – | ~0.154 | 0.05 | Cc1cncc2c1c(C[C@@H]1CCN(CC3CCN(C(=O)C(C)C)CC3)C1)cn2-c1ccc(F)cc1C(=O)N1CCC[C@H]1CO [Compound 328] | – | – |
